Experimental data: ChEMBL document CHEMBL1130055, “Discovery of a novel class of selective non-peptide antagonists for the human neurokinin-3 receptor. 1. Identification of the 4-quinolinecarboxamide framework” (J Med Chem, 1997)

Molecular target: T1, Substance-K receptor (Homo sapiens, UniProt P21452)
T1 sequence (P21452 whole entry): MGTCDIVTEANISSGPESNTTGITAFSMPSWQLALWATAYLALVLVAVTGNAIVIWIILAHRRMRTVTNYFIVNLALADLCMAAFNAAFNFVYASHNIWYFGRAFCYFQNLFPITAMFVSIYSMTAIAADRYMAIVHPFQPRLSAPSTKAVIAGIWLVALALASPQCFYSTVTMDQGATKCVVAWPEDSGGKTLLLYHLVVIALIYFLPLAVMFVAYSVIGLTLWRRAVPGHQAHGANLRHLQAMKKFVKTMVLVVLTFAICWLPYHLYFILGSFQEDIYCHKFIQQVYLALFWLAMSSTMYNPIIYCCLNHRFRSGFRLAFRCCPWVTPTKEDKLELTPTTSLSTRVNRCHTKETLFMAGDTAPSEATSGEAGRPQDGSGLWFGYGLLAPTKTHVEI
Test: Inhibition of [125I]neurokinin A (NKA) binding in human Tachykinin receptor 2 of chinese hamster ovary (hNK-2-CHO) cell membranes.

| SMILES | Ki [µM] |
| --- | --- |
| COC(=O)[C@H](NC(=O)c1cc(-c2ccccc2)nc2ccccc12)c1ccccc1 | 1.22 |
| COC(=O)[C@@H](NC(=O)c1cc(-c2ccccc2)nc2ccccc12)c1ccccc1 | 8.33 |
